The values that follow come from patent US20260008758A1, “LINEAR DIPEPTIDYL PEPTIDASE 1 INHIBITORS AND USES THEREOF” (Insmed Incorporated, priority 2024, published 2026).

In general, IC50 refers to the concentration that inhibits the measured activity by half.

Experiment [1] deals with human DPP1 enzyme (Homo sapiens (Human), UniProt P53634). Put plainly: Human DPP1 enzyme IC50 assay. The class given is biochemical. The gist of the method:
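Fluorogenic readout (350/450 nm, every 5 min over 90 min, 37°C) of H-Gly-Arg-AMC cleavage at 400 μM final substrate. Compounds met activated DPP1 first for a 10-min 37°C pre-incubation in MES buffer pH 6.0 with DTT, 1% DMSO final. Four-parameter sigmoidal fit gave IC50.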

For experiment [2], the target named is DPP1 in HL-60 cells (Homo sapiens (Human), UniProt P53634). Put plainly: DPP1 Cell IC50 assay. The class given is cell-based. As to conditions: H-Gly-Phe-AFC substrate, 60 min pre-incubation. As for the experimental part: Media was changed every three to four days and cells were not allowed to exceed 1×10^6 cells per mL. Prior to assay, cells were collected by centrifugation at 500 rcf for 3 minutes, resuspended in PBS and counted. Cells were diluted in PBS to a concentration of 5×10^5 live cells per mL and transferred to black 96-well plates for assay, 60 μL per well. Test articles were diluted in PBS plus 0.5% DMSO, and 20 μL was added to each assay well. Compound was allowed to pre-incubate with cells with gentle shaking at 100 rpm for 60 minutes at 37° C. in a cell culture incubator maintained at 5% CO2, after which 20 μL of 500 μM H-Gly-Phe-AFC substrate (MP Biomedicals; Solon, OH) was added to each well. Plates were returned to the incubator with shaking at 100 rpm for 30 minutes, after which fluorescence was measured at Excitation/Emission 400/505 nm. % Inhibition was calculated from RFU values compared to control cell wells that received only PBS plus 0.5% DMSO. IC50 values for each compound were calculated via the XLFit (IDBS Version 5.3.1.3) Add-On to Microsoft Excel using the four parameter fit equation y=(A+((B-A)/(1+((C/x)^D)))), which appears as equation number 205 (4 Parameter Logistic Model or Sigmoidal Dose-Response Model) in XLFit.

Setting [3] is: recombinant human DPP1, H-Gly-Arg-AMC substrate 400 μM.

SMILES strings stand for the structures. Read-outs that look alike come from different tables or passages of the source. Bounds are passed on as bounds.

Sequence of human DPP1 enzyme (P53634 25-134): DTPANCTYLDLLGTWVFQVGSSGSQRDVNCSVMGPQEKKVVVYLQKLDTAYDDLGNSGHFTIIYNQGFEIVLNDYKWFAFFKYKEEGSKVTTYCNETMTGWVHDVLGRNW
Sequence of human DPP1 enzyme (P53634 231-394): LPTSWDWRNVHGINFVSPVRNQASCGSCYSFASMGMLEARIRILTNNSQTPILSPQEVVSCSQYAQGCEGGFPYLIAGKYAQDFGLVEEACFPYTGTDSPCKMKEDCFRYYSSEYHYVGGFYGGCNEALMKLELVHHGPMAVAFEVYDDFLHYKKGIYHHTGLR
Sequence of human DPP1 enzyme (P53634 395-463): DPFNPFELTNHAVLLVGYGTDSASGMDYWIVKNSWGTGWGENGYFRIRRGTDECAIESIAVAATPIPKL
Sequence of DPP1 in HL-60 cells (P53634 25-134): as the sequence (P53634 25-134) above
Sequence of DPP1 in HL-60 cells (P53634 231-394): as the sequence (P53634 231-394) above
Sequence of DPP1 in HL-60 cells (P53634 395-463): as the sequence (P53634 395-463) above

With `CC(C)C(C)(N)C(=O)N[C@H](C#N)Cc1ccc(-c2ccc3oc(=O)n(C)c3c2)cc1` (stereo partly drawn) [Compound 172, 2-amino-N-[(1S)-1-cyano-2-[4-(3-methyl-2-oxo-1,3-benzoxazol-5-yl)phenyl]ethyl]-2,3-dimethylbutanamide], the values for the IC50 in experiment [1] (setting [3]) and in experiment [2] were 5 to 15 nM and 1 to 2.5 nM, respectively.
For `Cn1c(=O)oc2ccc(-c3ccc(C[C@@H](C#N)NC(=O)CC(N)C4CCCCC4)cc3)cc21` (some centres unmarked) [Compound 188], the values for the half-maximal inhibitory concentration (IC50) in experiment [1] (setting [3]) and in experiment [2] were at least 15 nM and at least 2.5 nM, respectively.
Turning to `CC(C(=O)N[C@H](C#N)Cc1ccc(-c2ccc3oc(=O)n(C)c3c2)cc1)C1(N)CC1` (some centres unmarked) [Compound 195], the IC50 in experiment [1] (setting [3]) was at least 15 nM; in experiment [2], at least 2.5 nM.
As for `Cn1c(=O)oc2ccc(-c3ccc(C[C@@H](C#N)NC(=O)C(N)Cc4cccnc4O)cc3)cc21` (stereo partly drawn) [Compound 199, 2-amino-N-[(1S)-1-cyano-2-[4-(3-methyl-2-oxo-1,3-benzoxazol-5-yl)phenyl]ethyl]-3-(2-hydroxypyridin-3-yl)propanamide], the IC50 in experiment [1] (setting [3]) is at least 15 nM; in experiment [2] it was at least 2.5 nM.
In the same order, the values of `Cn1c(=O)oc2ccc(-c3ccc(C[C@@H](C#N)NC(=O)C(N)Cc4cncs4)cc3)cc21` (stereo partly drawn) [Compound 201, 2-amino-N-[(1S)-1-cyano-2-[4-(3-methyl-2-oxo-1,3-benzoxazol-5-yl)phenyl]ethyl]-3-(1,3-thiazol-5-yl)propanamide] are at least 15 nM and at least 2.5 nM.
For the compound `Cn1c(=O)oc2ccc(-c3ccc(C[C@@H](C#N)NC(=O)[C@@H](N)Cc4cccnc4)cc3)cc21` [Compound 202, (S)-2-amino-N—((S)-1-cyano-2-(4-(3-methyl-2-oxo-2,3-dihydrobenzo[d]oxazol-5-yl)phenyl)ethyl)-3-(pyridin-3-yl)propanamide], the IC50 was 5 to 15 nM in experiment [1] (setting [3]) and at least 2.5 nM in experiment [2].
On the same counts, the results for `Cn1c(=O)oc2ccc(-c3ccc(C[C@@H](C#N)NC(=O)C(N)Cc4ccccc4O)cc3)cc21` (stereo partly drawn) [Compound 203, 2-amino-N-[(1S)-1-cyano-2-[4-(3-methyl-2-oxo-1,3-benzoxazol-5-yl)phenyl]ethyl]-3-(2-hydroxyphenyl)propanamide] are 5 to 15 nM and at least 2.5 nM.
Regarding `Cn1c(=O)oc2ccc(-c3ccc(C[C@@H](C#N)NC(=O)C(N)Cc4cocn4)cc3)cc21` (stereo partly drawn) [Compound 204, 2-amino-N-[(1S)-1-cyano-2-[4-(3-methyl-2-oxo-1,3-benzoxazol-5-yl)phenyl]ethyl]-3-(1,3-oxazol-4-yl)propanamide], the figures for the IC50 in experiment [1] (setting [3]) and in experiment [2] were at most 5 nM and 1 to 2.5 nM, respectively.
As to `Cn1c(=O)oc2ccc(-c3ccc(C[C@@H](C#N)NC(=O)[C@@H](N)[C@@H]4CCc5ccccc54)cc3)cc21` [Compound 206, (S)-2-amino-N—((S)-1-cyano-2-(4-(3-methyl-2-oxo-2,3-dihydrobenzo[d]oxazol-5-yl)phenyl)ethyl)-2-((R)-2,3-dihydro-1H-inden-1-yl)acetamide], the results for the IC50 in experiment [1] (setting [3]) and in experiment [2] were at least 15 nM and at least 2.5 nM, respectively.
Consider `Cn1c(=O)oc2ccc(-c3ccc(C[C@@H](C#N)NC(=O)[C@@H](N)[C@H]4CCc5ccccc54)cc3)cc21` [Compound 207, (S)-2-amino-N—((S)-1-cyano-2-(4-(3-methyl-2-oxo-2,3-dihydrobenzo[d]oxazol-5-yl)phenyl)ethyl)-2-((S)-2,3-dihydro-1H-inden-1-yl)acetamide], for which the IC50 in experiment [1] (setting [3]) was at least 15 nM; in experiment [2], at least 2.5 nM.
On to `Cn1c(=O)oc2ccc(-c3ccc(C[C@@H](C#N)NC(=O)C(N)Cc4cc[nH]c4)cc3)cc21` (stereo partly drawn) [Compound 208, 2-amino-N-[(1S)-1-cyano-2-[4-(3-methyl-2-oxo-1,3-benzoxazol-5-yl)phenyl]ethyl]-3-(1H-pyrrol-3-yl)propanamide], for which the IC50 in experiment [1] is under 5 nM; in experiment [2], at least 2.5 nM.
On to `Cn1c(=O)oc2ccc(-c3ccc(C[C@@H](C#N)NC(=O)[C@H](N)[C@H]4CCCO4)cc3)cc21` [Compound 211, (2R)-2-amino-N-[(1S)-1-cyano-2-[4-(3-methyl-2-oxo-1,3-benzoxazol-5-yl)phenyl]ethyl]-2-[(2R)-oxolan-2-yl]acetamide], for which the IC50 was at least 15 nM in experiment [1] (setting [3]) and at least 2.5 nM in experiment [2].
For `Cn1c(=O)oc2ccc(-c3ccc(C[C@@H](C#N)NC(=O)[C@H](N)[C@@H]4CCCO4)cc3)cc21` [Compound 213, (2R)-2-amino-N-[(1S)-1-cyano-2-[4-(3-methyl-2-oxo-1,3-benzoxazol-5-yl)phenyl]ethyl]-2-[(2S)-oxolan-2-yl]acetamide], the IC50 in experiment [1] (setting [3]) was at least 15 nM; in experiment [2], at least 2.5 nM.
`Cn1c(=O)oc2ccc(-c3ccc(C[C@@H](C#N)NC(=O)[C@@H](N)Cc4cn[nH]c4)cc3)cc21` [Compound 214, (2S)-2-amino-N-[(1S)-1-cyano-2-[4-(3-methyl-2-oxo-1,3-benzoxazol-5-yl)phenyl]ethyl]-3-(1H-pyrazol-4-yl)propanamide]: the IC50 in experiment [1] (setting [3]) was at least 15 nM; in experiment [2], at least 2.5 nM.
Turning to `Cn1c(=O)oc2ccc(-c3ccc(C[C@@H](C#N)NC(=O)[C@H](N)Cc4c[nH]cn4)cc3)cc21` [Compound 215, (2R)-2-amino-N-[(1S)-1-cyano-2-[4-(3-methyl-2-oxo-1,3-benzoxazol-5-yl)phenyl]ethyl]-3-(1H-imidazol-4-yl)propanamide], the IC50 in experiment [1] (setting [3]) was at least 15 nM; in experiment [2], at least 2.5 nM.
With `Cn1c(=O)oc2ccc(-c3ccc(C[C@@H](C#N)NC(=O)C(N)Cc4ncsc4Cl)cc3)cc21` (stereo partly drawn) [Compound 218, 2-amino-3-(5-chloro-1,3-thiazol-4-yl)-N-[(1S)-1-cyano-2-[4-(3-methyl-2-oxo-1,3-benzoxazol-5-yl)phenyl]ethyl]propanamide], the results for the IC50 in experiment [1] (setting [3]) and in experiment [2] were 5 to 15 nM and at least 2.5 nM, respectively.
For the compound `Cn1c(=O)oc2ccc(-c3ccc(C[C@@H](C#N)NC(=O)C(C)(N)C4CCCC4)cc3)cc21` (stereo partly drawn) [Compound 219, 2-amino-N-[(1S)-1-cyano-2-[4-(3-methyl-2-oxo-1,3-benzoxazol-5-yl)phenyl]ethyl]-2-cyclopentylpropanamide], the results for the IC50 in experiment [1] (setting [3]) and in experiment [2] were at most 5 nM and 1 to 2.5 nM, respectively.
In the case of `Cn1c(=O)oc2ccc(-c3ccc(C[C@@H](C#N)NC(=O)C(C)(N)C4CCC4)cc3)cc21` (stereo partly drawn) [Compound 220, 2-amino-N-[(1S)-1-cyano-2-[4-(3-methyl-2-oxo-1,3-benzoxazol-5-yl)phenyl]ethyl]-2-cyclobutylpropanamide], the IC50 in experiment [1] (setting [3]) was at most 5 nM; in experiment [2] it was 1 to 2.5 nM.
On to `Cn1c(=O)oc2ccc(-c3ccc(C[C@@H](C#N)NC(=O)C(N)Cc4cc[nH]n4)cc3)cc21` (stereo partly drawn) [Compound 221, 2-amino-N-[(1S)-1-cyano-2-[4-(3-methyl-2-oxo-1,3-benzoxazol-5-yl)phenyl]ethyl]-3-(1H-pyrazol-3-yl)propanamide], for which the IC50 in experiment [1] (setting [3]) is at most 5 nM; in experiment [2], at least 2.5 nM.
In the case of `Cn1c(=O)oc2ccc(-c3ccc(C[C@@H](C#N)NC(=O)C4(N)CCCC45CC5)cc3)cc21` (stereo partly drawn) [Compound 222, 4-amino-N-[(1S)-1-cyano-2-[4-(3-methyl-2-oxo-1,3-benzoxazol-5-yl)phenyl]ethyl]spiro[2.4]heptane-4-carboxamide], the values for the IC50 in experiment [1] (setting [3]) and in experiment [2] were at most 5 nM and 1 to 2.5 nM, respectively.
For the compound `Cn1c(=O)oc2ccc(-c3ccc(C[C@@H](C#N)NC(=O)C(N)Cc4ccon4)cc3)cc21` (stereo partly drawn) [Compound 231, 2-amino-N-[(1S)-1-cyano-2-[4-(3-methyl-2-oxo-1,3-benzoxazol-5-yl)phenyl]ethyl]-3-(1,2-oxazol-3-yl)propanamide], the IC50 in experiment [1] (setting [3]) was at most 5 nM; in experiment [2], at least 2.5 nM.
On the same counts, the results for `C[C@@H](NCc1cccs1)C(=O)N[C@H](C#N)Cc1ccc(-c2ccc3oc(=O)n(C)c3c2)cc1` [Compound 232, (2R)—N-[(1S)-1-cyano-2-[4-(3-methyl-2-oxo-1,3-benzoxazol-5-yl)phenyl]ethyl]-2-[(thiophen-2-ylmethyl)amino]propanamide] are at least 15 nM and at least 2.5 nM.
Take `N#Cc1ccc(-c2ccc(C[C@H](C#N)NC(=O)C3(N)CCOCC3)c(I)c2)cc1` [Compound 249, 4-amino-N-[(1R)-1-cyano-2-{4′-cyano-3-iodo-[1,1′-biphenyl]-4-yl}ethyl]oxane-4-carboxamide]: the IC50 was at least 15 nM in experiment [1] (setting [3]) and at least 2.5 nM in experiment [2].
With `Cn1ccc(CC(N)C(=O)N[C@H](C#N)Cc2ccc(-c3ccc4oc(=O)n(C)c4c3)cc2)c1` (stereo partly drawn) [Compound 254, 2-amino-N-[(1S)-1-cyano-2-[4-(3-methyl-2-oxo-1,3-benzoxazol-5-yl)phenyl]ethyl]-3-(1-methylpyrrol-3-yl)propanamide], the figures for the IC50 in experiment [1] (setting [3]) and in experiment [2] were 5 to 15 nM and at least 2.5 nM, respectively.
As for `COCCN(C)CCn1c(=O)oc2ccc(-c3ccc(C[C@@H](C#N)NC(=O)[C@@](C)(N)C4CCCC4)cc3)cc21` [Compound 258A, (2S)-2-amino-N-[(1S)-1-cyano-2-[4-(3-{2-[(2-methoxyethyl)(methyl)amino]ethyl}-2-oxo-1,3-benzoxazol-5-yl)phenyl]ethyl]-2-cyclopentylpropanamide], the IC50 was at least 15 nM in experiment [1] (setting [3]) and at least 2.5 nM in experiment [2].
